# How the values were obtained:
# Format in all cases: cell-based
# [1] = system: Gram-Positive Bacteria, Gram-Negative Bacteria, Moulds and Yeasts; assay: activity of LAE against listed microorganisms; details: strains listed in b7
# Description: • Arthrobacter oxydans ATCC 8010 • Bacillus cereus var mycoide ATCC 11778 • Bacillus subtilis ATCC 6633 • Bacillus megaterium CECT 44 • Clostridium perfringens ATCC 77454 • Clostridium perfringens CECT 486 • Listeria monocytogenes ATCC 7644 • Staphylococcus aureus ATCC 6538 • Micrococcus luteus ATCC 9631 • Lactobacillus delbrueckii ssp lactis CECT 372 Gram-Negative Bacteria • Alcaligenes faecalis ATCC 8750 • Bordetella bronchiseptica ATCC 4617 • Citrobacter freundii ATCC 22636 • Citrobacter intermedium CECT 401 • Enterobacter aerogenes CECT 689 • Escherichia coli ATCC 8739 • Escherichia coli 0157H7 • Klebsiella pneumoniae var pneumoniae CECT 178 • Proteus mirabilis CECT 170 • Pseudomonas aeruginosa ATCC 9027 • Salmonella typhimurium ATCC16028 • Serratia marcenses CECT 274 • Mycobacterium phlei ATCC 41423 Moulds and Yeasts • Aspergillus niger ATCC14604 • Aureobasidium pullulans ATCC 9348 • Cladosporium cladosporioides ATCC 16022 • Gliocadium virens ATCC 4645 • Chaetonium globosum ATCC 6205 • Penicillium chrysogenum CECT 2802 • Penicillium funiculosum CECT 2914 • Penicillium camemberti CECT 2267 • Candida albicans ATCC 10231 • Rhodotorula rubra CECT 1158 • Saccharomyces cerevisiae ATCC 9763
# [2] = system: Bacillus megaterium (CECT 44); assay: minimum inhibition concentration and Kull synergy index of LAE / potassium sorbate; details: pH 7.4, aqueous solutions
# Description: (§1) The invention is now explained by a number of examples. In these examples LAE and sorbate alone and in a number of different combinations have been investigated against a number of bacterial preparations. For the analysis usually an internal method was used. Conditions and medium were Mueller Hinton broth (pH 7.4) or (pH 5.0) for bacteria, Sabouraud broth (pH 5.8) for yeast and Sabouraud medium for moulds. The interaction of the two components of the antimicrobial mixture is calculated according to the method described by Kull et al. (Kull […]. and Mayer R. L., Applied Microbiology, 1961; 6:538-541). According to this method the so-called synergy index is calculated according to the following formula: Synergy index […]. […] Again the effects of the components alone and in combination have been calculated using the same method as described at Example 1.
# [3] = system: Staphylococcus aureus (ATCC 6538); assay: as above; details: for SI, synergy index: <1 synergism, 1 addition, >1 antagonism
# Description: as §1
smiles,measurement,setting,value
"CCCCCCCCCCCC(=O)N[C@@H](CCCNC(=N)N)C(=O)OCC.Cl [LAE, L-arginine, N^α-lauroyl-ethylester monohydrochloride]",activity against the listed microorganisms,[1],activity
same,"QLAE, minimum inhibition concentration of LAE as single antimicrobial",[2],6.4
same,"Qlae, minimum inhibition concentration of LAE in the mixture",[2],6.4
same,Qlae/QLAE,[2],1
same,"Qs, minimum inhibition concentration of potassium sorbate in the mixture",[2],0
same,Qs/QS,[2],0.00
same,"SI, synergy index","[2]; <1 synergism, 1 addition, >1 antagonism",1.00
same,"QLAE, minimum inhibition concentration of LAE as single antimicrobial",[3]; pH 5.0,29.3
same,"Qlae, minimum inhibition concentration of LAE in the mixture",[3]; pH 5.0,29.3
same,Qlae/QLAE,[3]; pH 5.0,1.00
same,"Qs, minimum inhibition concentration of potassium sorbate in the mixture",[3]; pH 5.0,0
same,Qs/QS,[3]; pH 5.0,0.00
same,"SI, synergy index",[3]; pH 5.0,1.00
same,"QLAE, minimum inhibition concentration of LAE as single antimicrobial","[3]; pH 7.4, aqueous solutions",3.2
same,"Qlae, minimum inhibition concentration of LAE in the mixture","[3]; pH 7.4, aqueous solutions",3.2
same,Qlae/QLAE,"[3]; pH 7.4, aqueous solutions",1.0
same,"Qs, minimum inhibition concentration of potassium sorbate in the mixture","[3]; pH 7.4, aqueous solutions",0
same,Qs/QS,"[3]; pH 7.4, aqueous solutions",0.00
same,"SI, synergy index","[3]; pH 7.4, aqueous solutions",1.00

# Reference: US7074447B2 (Laboratories Miret, S.A., priority 2001, dated 2006)
